# pEC50: −log10 of the molar value.
# Target: T1, KCNQ 2/3 channels (Homo sapiens, UniProt O43525+O43526)
# T1 construct: expressed in transfected cells; host or cells: HEK293
# Test: KCNQ 2/3 channel activation, thallium flux FLIPR assay (BTC-AM dye)
# Format: cell-based
# Details: for Emax: HEK293, maximum response relative to the response of 10 μM retigabine (set at 100%), read-out: % MAX; for pEC50: HEK293 cells stably expressing human KCNQ2 and KCNQ3 subunits, thallium-induced fluorescence, 4 min compound incubation
# Experimental: The following example describes the assay that can be used to identify compounds that activate KCNQ 2/3 channels.
# HEK293 cells stably expressing human KCNQ2 and KCNQ3 subunits were seeded in 96-well, black-walled, clear-bottomed, poly-D-lysine coated plates (BD Biosciences, Bedford, Mass.) at a density of 1×10^5 cells per well 24 hours before the assay. On the assay day, BTC-AM dye (Invitrogen, Carlsbad, Calif.) was loaded into the cells by replacing the cell culture medium with 55 μL/well of 3 μg/mL dye in DPBS. Dye loading was allowed to proceed for 2 hours at room temperature and then cells were washed twice with 50 μL/well of assay buffer (in mM: 10 HEPES pH 7.3, 5 glucose, 140 Na-gluconate, 2.5 K-gluconate, 3.6 Ca-gluconate, 2 MgSO4, 0.1 Ouabain) to remove unloaded dye. Cells were incubated in 50 μL of assay buffer before loading onto a FLIPR system (Molecular Devices, Sunnyvale, Calif.). Various concentrations of compounds to be assayed were added to the cells in 50 μL of assay buffer and incubated for 4 minutes. The fluorescence signal was initiated by adding 100 μL of assay buffer containing 6 mM TlNO3 and 10 mM K2SO4. Fluors were excited using the 488-nm line of an argon laser and emission was filtered using a 540±30 nm bandpass filter. Fluorescent signals were recorded for 3 minutes. Sums of the responses over basal responses were plotted versus concentrations of test compounds to obtain an EC50 value. The maximum response for each test compound was determined relative to the response produced by 10 μM retigabine. The maximum response of retigabine at 10 μM was set at 100%.
Emax (HEK293 KCNQ2/KCNQ3 cells),pEC50,"% MAX (maximum response relative to the response of 10 μM retigabine (set at 100%), HEK293 KCNQ2/KCNQ3 cells)",Structure (SMILES)
42.2%,,,"Nc1ccc(S(=O)(=O)c2nn(NC(=O)Cc3ccc(Cl)cc3)c(=O)c3ccccc23)cc1 [Example 115, N-{4-[(4-aminophenyl)sulfonyl]-1-oxophthalazin-2(1H)-yl}-2-(4-chlorophenyl)acetamide]"
,7.04,144%,"CC1CN(c2nn(NC(=O)CC3CC4CCC3C4)c(=O)c3ccccc23)CC(C)O1 (racemic) [Example 64, (±)-2-[(exo)-bicyclo[2.2.1]hept-2-yl]-N-[4-(2,6-dimethylmorpholin-4-yl)-1-oxophthalazin-2(1H)-yl]acetamide]"
18.7%,,,"COc1ccc(CC(=O)Nn2nc(N3CCOCC3)c3ccccc3c2=O)cc1 [Example 147, 2-(4-methoxyphenyl)-N-[4-(morpholin-4-yl)-1-oxophthalazin-2(1H)-yl]acetamide]"
87.3%,5.27,,"CCOC(=O)NCc1nn(NC(=O)Cc2ccc(Cl)cc2)c(=O)c2ccccc12 [Example 85, ethyl[(3-{[(4-chlorophenyl)acetyl]amino}-4-oxo-3,4-dihydrophthalazin-1-yl)methyl]carbamate]"
53.2%,5.85,,"CCOC(=O)C(C)c1nn(NC(=O)Cc2ccc(Cl)cc2)c(=O)c2ccccc12 (stereo not drawn) [Example 109, ethyl 2-(3-{[(4-chlorophenyl)acetyl]amino}-4-oxo-3,4-dihydrophthalazin-1-yl)propanoate]"
212%,6.05,,"O=C(CC1CC2CCC1C2)Nn1nc(C(O)c2ccccc2)c2ccccc2c1=O (racemic) [Example 102, (±)-2-[(exo)-bicyclo[2.2.1]hept-2-yl]-N-{4-[hydroxy(phenyl)methyl]-1-oxophthalazin-2(1H)-yl}acetamide]"
147%,7.13,,"O=C(CC1CC2CCC1C2)Nn1nc(S(=O)(=O)Cc2ccccc2)c2ccccc2c1=O (racemic) [Example 217, (±)-N-[4-(benzylsulfonyl)-1-oxophthalazin-2(1H)-yl]-2-[(exo)-bicyclo[2.2.1]hept-2-yl]acetamide]"
80%,5.26,,"O=C(Cc1cccc(Cl)c1)Nn1nc(N2CCOCC2)c2ccccc2c1=O [Example 152, 2-(3-chlorophenyl)-N-[4-(morpholin-4-yl)-1-oxophthalazin-2(1H)-yl]acetamide]"
101%,6.49,,"CCC1CN(c2nn(NC(=O)Cc3ccc(Cl)cc3)c(=O)c3ccccc23)CCO1 (stereo not drawn) [Example 221, 2-(4-chlorophenyl)-N-[4-(2-ethylmorpholin-4-yl)-1-oxophthalazin-2(1H)-yl]acetamide]"
92.6%,5.29,,"CS(=O)(=O)c1ccc(CC(=O)Nn2nc(Sc3ccccc3)c3ccccc3c2=O)cc1 [Example 181, 2-[4-(methylsulfonyl)phenyl]-N-[1-oxo-4-(phenylsulfanyl)phthalazin-2(1H)-yl]acetamide]"
154%,6.79,,"O=C(CC12CC3CC(CC1C3)C2)Nn1nc(N2CCOCC2)c2ccccc2c1=O [Example 210, 2-(hexahydro-2,5-methanopentalen-3a(1H)-yl)-N-[4-(morpholin-4-yl)-1-oxophthalazin-2(1H)-yl]acetamide]"
33.9%,,,"CC(C)(C)OC(=O)NCc1nn(NC(=O)C[C@@H]2CC[C@H]3C[C@@H]2C3(C)C)c(=O)c2ccccc12 [Example 119, tert-butyl{[3-({[(1S,2S,5S)-6,6-dimethylbicyclo[3.1.1]hept-2-yl]acetyl}amino)-4-oxo-3,4-dihydrophthalazin-1-yl]methyl}carbamate]"
11.7%,,,"O=C(Cc1ccc(Cl)cc1)Nn1nc(Cc2ccc(Cl)[n+]([O-])c2)c2ccccc2c1=O [Example 104, N-{4-[(6-chloro-1-oxidopyridin-3-yl)methyl]-1-oxophthalazin-2(1H)-yl}-2-(4-chlorophenyl)acetamide]"
185%,6.57,,"CC(C)(C)OC(=O)NC(c1ccccc1)c1nn(NC(=O)CC2CC3CCC2C3)c(=O)c2ccccc12 (racemic) [Example 179, tert-butyl(±)-[(3-{[(exo)-bicyclo[2.2.1]hept-2-ylacetyl]amino}-4-oxo-3,4-dihydrophthalazin-1-yl)(phenyl)methyl]carbamate]"

# From US8859549B2, “Potassium channel modulators” (AbbVie, Inc., priority 2011, dated 2014)
